Data from the SangsterLogP compilation.

Assay: method code SF-HPLC, from PMID: 2608704
Details: pH 1.0

Row | SMILES | logD
1 | O=C(O)CCCC1=NS(=O)(=O)c2cc(Cl)cc(Cl)c2N1 | 1.22
2 | O=C(O)CCC1=NS(=O)(=O)c2cc(Cl)c(Cl)cc2N1 | 1.5
3 | O=C(O)CCSC1=NS(=O)(=O)c2cc(Br)ccc2N1 | 1.77
4 | Cc1ccc2c(c1)NC(SCC(=O)O)=NS2(=O)=O | 0.7
5 | O=C(O)CCSC1=NS(=O)(=O)c2ccccc2N1 | 0.66
6 | O=C(O)CSC1=NS(=O)(=O)c2ccc(Cl)cc2N1 | 0.82
7 | COc1ccc2c(c1)NC(SCC(=O)O)=NS2(=O)=O | 0.37
8 | O=C(O)CCC1=NS(=O)(=O)c2cc(Br)cc(Br)c2N1 | 1.35
9 | O=C(O)CSC1=NS(=O)(=O)c2cc(Cl)c(Cl)cc2N1 | 1.1
10 | O=C(O)CSC1=NS(=O)(=O)c2cc(Br)cc(Br)c2N1 | 1.16
11 | O=C(O)CCSC1=NS(=O)(=O)c2cc(Cl)c(Cl)cc2N1 | 1.81

Other lines, results leading:

Row | logD | SMILES
12 | 2.04 | O=C(O)CCSC1=NS(=O)(=O)c2cc(Br)cc(Br)c2N1
13 | 1.51 | O=C(O)CCCC1=NS(=O)(=O)c2cc(Br)cc(Br)c2N1
14 | 1.16 | Cc1ccc2c(c1)NC(SCCC(=O)O)=NS2(=O)=O
15 | 1.04 | O=C(O)CCC1=NS(=O)(=O)c2cc(Cl)cc(Cl)c2N1
16 | 1.62 | O=C(O)CSC1=NS(=O)(=O)c2ccc(C(F)(F)F)cc2N1
17 | 1.96 | O=C(O)CCSC1=NS(=O)(=O)c2ccc(C(F)(F)F)cc2N1
18 | 0.96 | COc1ccc2c(c1)NC(SCCC(=O)O)=NS2(=O)=O
19 | 1.09 | O=C(O)CSC1=NS(=O)(=O)c2cc(Cl)cc(Cl)c2N1
20 | 1.43 | O=C(O)CCSC1=NS(=O)(=O)c2cc(Cl)ccc2N1
21 | 0.18 | O=C(O)CSC1=NS(=O)(=O)c2ccccc2N1
22 | 1.6 | O=C(O)CCSC1=NS(=O)(=O)c2ccc(Cl)cc2N1
23 | 0.92 | O=C(O)CSC1=NS(=O)(=O)c2cc(Br)ccc2N1
24 | 0.72 | O=C(O)CSC1=NS(=O)(=O)c2cc(Cl)ccc2N1
